In patent US5112519A, “Process for production of biodegradable surfactants and compositions thereof” (Mobil Oil Corporation, priority 1989, dated 1992):

Experiments:
[1] = Soil removal, phosphorous built industrial liquid laundry detergent, carbon black/oil; conditions: 130° F.
Excerpt: (§1) In contrast, the three industrial detergents contained a high performance builder package, and dodecylbenzenesulfonic acid sodium salt. Two of the three also contain an AE, either tridecanol-9-mole-ethoxylate or C12-15 -alcohol-9 mole-ethoxylate. Many commercial detergents use combinations of LABS and AE's to balance performance and cost. LABS remove particulates well and lower overall surfactant cost while AE's effectively remove oily soils. The surfactant concentrations in all three are equal (i.e., the detergent without AE had more LABS) excepting the detergent using Mobil's AE. Its concentration is not increased to offset a contaminant, 7 wt % polyethylene glycol. The builder in all three detergents contained tetrapotassium pyrophosphate, sodium metasilicate, potassium hydroxide, and carboxymethylcellulose.
(§2) Testing Methods. This study uses two artificial soils on three test fabrics. Carbon black in an oil matrix simulates particulate soil, and sebum/dust simulates oily soil. Test Fabrics Inc. (Middlesex, N.J.) prints these soils on 100% cotton, 65/35 polyester/cotton with permanent press finish, and 100% polyester fabrics.
(§3) U.S. Testing Company did the fabric washing and drying under carefully controlled conditions. A Terg-O-Tometer washes using a 15 minute wash time. Conditions are 100 rpm agitation speed, 130° F. for the industrial detergents and 100° F. for the household detergents. They made wash and rinse water to 150 ppm hardness (U.S. national average), and washes six 3×4 inch test swatches per liter of solution. They rinse each load twice for five minutes. After washing and rinsing, the swatches are dried in an electric dryer, and ironed with a warm iron to remove wrinkles. All samples are run in triplicate.
(§4) White light reflectance, taken before and after washing, measures soil removal. A green filter cut out the effect of artificial brighteners. They measure soil redoposition by taking reflectance readings of fabric margins (areas not printed with soil) before and after washing. […]

[2] = Soil removal, phosphorous built industrial liquid laundry detergent, sebum/dust; conditions: 130° F.
Excerpt: as §1, §2, §3, §4

[3] = Soil removal, unbuilt household liquid laundry detergent, carbon black/oil; conditions: 100° F.
Excerpt: (§5) Applicants blend three unbuilt household detergents differing only in the surfactant. Either Mobil's tridecanol-9 mole-ethoxylate, Shell's C12-15 -alcohol-9 mole-ethoxylate, or Vista's dodecylbenzenesulfonic acid sodium salt are used. All contain triethanolamine to make the wash liquor basic. This type formulation magnifies surfactant differences because it lacks a builder to extend the surfactant and soften hard water.
as §2, §3
(§6) White light reflectance, taken before and after washing, measures soil removal. A green filter cut out the effect of artificial brighteners. They measure soil redoposition by taking reflectance readings of fabric margins (areas not printed with soil) before and after washing. […] However, the reflectance technique more closely measures soil removal from the fabric surface, what the consumer sees.

[4] = Soil removal, unbuilt household liquid laundry detergent, sebum/dust; conditions: 100° F.
Excerpt: as §5, §2, §3, §6

For “dodecylbenzenesulfonic acid sodium salt [Vista LABS]”, the “Percent Soil Removal” value ([1]; Cotton) was 52%, the “Percent Soil Removal” value ([1]; Polyester) was 29% and the “Percent Soil Removal” value ([1]; Polyester/Cotton) was 34%. For the same substance, the “Percent Soil Removal” value ([2]; Cotton) was 60%, the “Percent Soil Removal” value ([2]; Polyester) was 39% and the “Percent Soil Removal” value ([2]; Polyester/Cotton) was 82%. For the same substance, the “Percent Soil Removal” value ([3]; Cotton) was 36%, the “Percent Soil Removal” value ([3]; Polyester) was 40% and the “Percent Soil Removal” value ([3]; Polyester/Cotton) was 31%. For the same substance, the “Percent Soil Removal” value ([4]; Cotton) was 36%, the “Percent Soil Removal” value ([4]; Polyester) was 19% and the “Percent Soil Removal” value ([4]; Polyester/Cotton) was 45%.
